Results taken from patent publication US7488738B2, “Aminophenoxyacetic acid derivatives and pharmaceutical composition containing thereof” (Asubio Pharma Co., Ltd., priority 1998, dated 2009).

Tested on: cells of cerebral cortex
Test: Cytoprotective effect against glutamate induced cell death (MTT)
Assay type: cell-based, rats of Wister strain
Details: compound 1 μM added 24 h before 1 mM glutamate, fetal rat cerebral cortex cells, control group = 100%; for viability at 1 µM: read-out: Survival Rate (%) (Compound: 1 μM)
Description: Biological Test 1: Cytoprotective Effect Against Glutamate Induced Cell Death
In accordance with the method of M. P. Mattoson [M. P. Mattoson, Brain Res. Rev., 13, 179 (1988)], brain of 18-days fetus rats of Wister strain were taken out. Then, cells of cerebral cortex (4×10^5 cells/ml) were seeded on poly-L-lysine coated 96 wells flat bottom plate (Sumitomo Bakelite Co., Ltd.) in concentration of 4×10^4 cells/each well. After 48 hours of incubation, 1 μM of test compounds were added, then after further 24 hours, 1 mM of glutamate were further added for inducing the cell injury. 12 hours after adding glutamate, MTT [3-(4,5-dimethylthiazol)-2,5-diphenyltetrazolium bromide] was added and incubated for 6 hours.
After incubation, 200 μl of dimethy sulfoxide was added to each wells, and the amounts of reduced MTT were calorimetrically analyzed by Micro ELISA Reader using 570 nm of main-wavelength and 650 nm of sub-wavelength.
The effect of the test compounds was determined as the survival rate of living cells (%) according to the following equation: Survival rate of living cells (%)=[(test compound group−glutamate treated group)÷(control group−glutamate treated group)]×100
That is, the survival rate of living cells after incubation of the control group was converted to 100%, and the survival data of living cells of the tested compounds was shown in Table II.

SMILES | Survival Rate (%) (Compound: 1 μM) | viability at 1 µM
Cc1cc(OCC(=O)N(C)C2CCN(CC(=O)N[C@@H]3C[C@H]3c3ccccc3)CC2)c(C)c(C)c1N (relative stereo) [Compound 66] | 60% | 
CCN(C(=O)CNc1c(C)c(C)c(N)c(C)c1C)C1CCN(C[C@@H]2C[C@H]2c2ccccc2)CC1 (relative stereo) [Compound 94, 2-(4-Amino-2,3,5,6-tetramethylanilino)-N-ethyl-N-[1-(trans-2-phenyl-1-cyclopropylmethyl)-4-piperidinyl]acetamide] |  | 198%
Cc1cc(OCC(=O)NC2CCN(C[C@@H]3C[C@H]3c3ccccc3)CC2)c(C)c(C)c1N (relative stereo) [Compound 95, 2-(4-Amino-2,3,5-trimethylphenoxy)-N-[1-(trans-2-phenyl-1-cyclopropylmethyl)-4-piperidinyl]acetamide] |  | 61%
Cc1cc(OC(C)(C)C(=O)NC2CCN(C[C@@H]3C[C@H]3c3ccccc3)CC2)c(C)c(C)c1N (relative stereo) [Compound 99, 2-(4-Amino-2,3,5-trimethylphenoxy)-2-methyl-N-[1-(trans-2-phenyl-1-cyclopropylmethyl)-4-piperidinyl]propamide] | 151% | 
Cc1cc(OC(C)C(=O)NC2CCN(C[C@@H]3C[C@H]3c3ccccc3)CC2)c(C)c(C)c1N (relative stereo) [Compound 106, 2-(4-Amino-2,3,5-trimethylphenoxy)-N-[1-(trans-2-phenyl-1-cyclopropylmethyl)-4-piperidinyl]propamide] | 151% | 
Cc1cc(N)c(NCC(=O)N(C)C2CCN(C[C@@H]3C[C@H]3c3ccccc3)CC2)cc1C (relative stereo) [Compound 137, 2-(2-Amino-4-5-dimethylanilino)-N-methyl-N-[1-(trans-2-phenyl-1-cyclopropylmethyl)-4-piperidinyl]acetamide] | 71% | 
Cc1cc(OC(C)(C)C(=O)N(C)C2CCN(CCc3ccccc3)CC2)c(C)c(C)c1N [Compound 38, 2-(4-Amino-2,3,5-trimethylphenoxy)-2-methyl-N-methyl-N-[1-(2-phenethyl)-4-piperidinyl]propamide] | 114% | 
Cc1c(C)c(NCC(=O)N(C)C2CCN(CC(=O)Nc3ccccc3)CC2)c(C)c(C)c1N [Compound 41, 2-(4-Amino-2,3,5,6-tetramethylanilino)-N-[1-(2-anilino-2-oxyethyl)-4-piperidinyl]-N-methylacetamide] | 86% | 
Cc1cc(OCC(=O)N(C)C2CCN(Cc3ccc4ccccc4n3)CC2)c(C)c(C)c1N [Compound 44, 2-(4-Amino-2,3,5-trimethylphenoxy)-N-methyl-N-[1-(2-quinolylmethyl)-4-piperidinyl]acetamide] |  | 93%
Cc1cc(OCC(=O)N(C)C2CCN(CC(=O)Nc3cccc(Cl)c3C)CC2)c(C)c(C)c1N [Compound 45, 2-(4-Amino-2,3,5-trimethylphenoxy)-N-[1-(2-(3-chloro-2-methyl)anilino-2-oxyethyl)-4-piperidinyl]-N-methylacetamide] | 190% | 
Cc1cc(OCC(=O)N(C)C2CCN(CC(=O)Nc3ccccc3C(C)(C)C)CC2)c(C)c(C)c1N [Compound 46, 2-(4-Amino-2,3,5-trimethylphenoxy)-N-[1-(2-(2-tert-butyl)anilino-2-oxyethyl)-4-piperidinyl]-N-methylacetamide] | 101% | 
Cc1cc(OC(C)(C)C(=O)N(C)C2CCN(CC(=O)Nc3cccc(Cl)c3C)CC2)c(C)c(C)c1N [Compound 48, 2-(4-Amino-2,3,5-trimethylphenoxy)-2-methyl-N-[1-(2-(3-chloro-2-methyl)anilino-2-oxyethyl)-4-piperidinyl]-N-methylpropamide] | 207% | 
Cc1cc(OC(C)(C)C(=O)N(C)C2CCN(CC(=O)Nc3ccccc3C(C)(C)C)CC2)c(C)c(C)c1N [Compound 49, 2-(4-Amino-2,3,5-trimethylphenoxy)-2-methyl-N-[1-(2-tert-butylanilino-2-oxyethyl)-4-piperidinyl]-N-methylpropamide] | 193% | 
Cc1cc(OC(C)(C)C(=O)N(C)C2CCN(CC(=O)Nc3c(C)cccc3C)CC2)c(C)c(C)c1N [Compound 50, 2-(4-Amino-2,3,5-trimethylphenoxy)-2-methyl-N-[1-(2-(2,6-dimethyl)anilino-2-oxyethyl)-4-piperidinyl]-N-methyl-propamide] | 54% | 
Cc1cc(OCC(=O)N(C)C2CCN(C/C=C/c3ccccc3)CC2)c(C)c(C)c1N [Compound 53, 2-(4-Amino-2,3,5-trimethylphenoxy)-N-methyl-N-[1-(3-phenyl-2-(E)-propenyl)-4-piperidinyl]acetamide] |  | 144%
Cc1cc(OC(C)C(=O)N(C)C2CCN(CC(=O)Nc3ccccc3C(C)(C)C)CC2)c(C)c(C)c1N (centres unmarked) [Compound 60, 2-(4-Amino-2,3,5-trimethylphenoxy)-N-[1-(2-(2-tert-butylanilino)-2-oxyethyl)-4-piperidinyl]-N-methylpropamide] | 60% | 
Cc1cc(OC(C)C(=O)N(C)C2CCN(CC(=O)Nc3c(C)cccc3C)CC2)c(C)c(C)c1N (centres unmarked) [Compound 61, 2-(4-Amino-2,3,5-trimethylphenoxy)-N-[1-(2-(2,6-dimethylanilino)-2-oxyethyl)-4-piperidinyl]-N-methylpropamide] | 58% | 
Cc1cc(OC(C)C(=O)N(C)C2CCN(C/C=C/c3ccccc3)CC2)c(C)c(C)c1N (centres unmarked) [Compound 62, 2-(4-Amino-2,3,5-trimethylphenoxy)-N-methyl-N-[1-(3-phenyl-2-(E)-propenyl)-4-piperidinyl]propamide] | 63% | 
Cc1cc(OCC(=O)N(C)C2CCN(CC(O)COc3ccccc3)CC2)c(C)c(C)c1N (centres unmarked) [Compound 65, 2-(4-Amino-2,3,5-trimethylphenoxy)-N-methyl-N-[1-(2-hydroxy-3-phenoxy)propyl-4-piperidinyl]acetamide] | 73% | 
Cc1cc(OC(C)(C)C(=O)N(C)C2CCN(C/C=C/c3ccccc3)CC2)c(C)c(C)c1N [Compound 67, 2-(4-Amino-2,3,5-trimethylphenoxy)-2-methyl-N-methyl-N-{1-(3-phenyl-2-(E)-propenyl)-4-piperidinyl]propamide] | 69% | 
Cc1cc(OC(C)(C)C(=O)N(C)C2CCN(CC3(c4ccccc4)CC3)CC2)c(C)c(C)c1N [Compound 68, 2-(4-Amino-2,3,5-trimethylphenoxy)-2-methyl-N-methyl-N-[1-(1-phenyl-1-cyclopropane)methyl-4-piperidinyl]propamide] | 75% | 
Cc1cc(OC(C)(C)C(=O)N(C)C2CCN(CC(=O)NC3(c4ccccc4)CC3)CC2)c(C)c(C)c1N [Compound 69, 2-(4-Amino-2,3,5-trimethylphenoxy)-2-methyl-N-methyl-N-[1-(2-(1-phenylcyclopropyl)amino-2-oxyethyl)-4-piperidinyl]propamide] | 68% | 
Cc1c(C)c(NCC(=O)N(C)C2CCN(CC3(c4ccccc4)CC3)CC2)c(C)c(C)c1N [Compound 70, 2-(4-Amino-2,3,5,6-tetramethylanilino)-N-methyl-N-[1-(1-phenyl-1-cyclopropane)methyl-4-piperidinyl]acetamide] | 88% | 
CCN(C(=O)COc1cc(C)c(N)c(C)c1C)C1CCN(CC(=O)Nc2ccccc2)CC1 [Compound 71, 2-(4-Amino-2,3,5-trimethylphenoxy)-N-[1-(2-anilino-2-oxyethyl)-4-piperidinyl]-N-ethylacetamide] | 89% | 
CCN(C(=O)COc1cc(C)c(N)c(C)c1C)C1CCN(C/C=C/c2ccccc2)CC1 [Compound 74, 2-(4-Amino-2,3,5-trimethylphenoxy)-N-ethyl-N-[1-(3-phenyl-2-(E)-propenyl)-4-piperidinyl]acetamide] |  | 87%
CCN(C(=O)C(C)Oc1cc(C)c(N)c(C)c1C)C1CCN(CC(=O)Nc2ccccc2)CC1 (centres unmarked) [Compound 75, 2-(4-Amino-2,3,5-trimethylphenoxy)-N-[1-(2-anilino-2-oxyethyl)-4-piperidinyl]-N-ethylpropamide] | 96% | 
CCN(C(=O)C(C)Oc1cc(C)c(N)c(C)c1C)C1CCN(C/C=C/c2ccccc2)CC1 (centres unmarked) [Compound 77, 2-(4-Amino-2,3,5-trimethylphenoxy)-N-ethyl-N-[1-(3-phenyl-2-(E)-propenyl)-4-piperidinyl]propamide] | 111% | 
CCN(C(=O)CNc1c(C)c(C)c(N)c(C)c1C)C1CCN(C/C=C/c2ccccc2)CC1 [Compound 78, 2-(4-Amino-2,3,5,6-tetramethylanilino)-N-ethyl-N-[1-(3-phenyl-2-(E)-propenyl)-4-piperidinyl]acetamide] |  | 96%
Cc1cc(OC(C)(C)C(=O)N(C)C2CCN(CC(=O)Nc3cc(Cl)c(N)cc3Cl)CC2)c(C)c(C)c1N [Compound 79, 2-(4-Amino-2,3,5-trimethylphenoxy)-2-methyl-N-[1-(2-(4-amino-2,5-dichloro)anilino-2-oxyethyl)-4-piperidinyl]-N-methylpropamide] | 79% | 
